The numbers were not newly measured in patent US6642259B1, “Immune stimulating dietary supplement and method of use thereof” (Trustees of Tufts College, priority 1999, dated 2003), which cites them from elsewhere.

The subject of one data set is T cell function. The conditions noted are these: supplementation of old mice.
A further data set deals with T-cell mediated funtion. Conditions: supplementation of the elderly human.

vitamin E: the T cell function result in the data set with T cell function is listed as “increased”. The “immunological responses (e.g. T-cell mediated funtion)” value in the data set with T-cell mediated funtion is recorded as “improved”.
